Here are results for 18 compounds from patent US9120791B2, “Indolizine compounds, a process for their preparation and pharmaceutical compositions containing them” (LES LABORATOIRES SERVIER, priority 2012, dated 2015).

One test deals with Bcl-2 protein (Homo sapiens (Human), UniProt P10415). The experiment in a line: Inhibition of Bcl-2 by the fluorescence polarisation technique. Format: binding. Particulars: fluorescence polarisation test; concentration that inhibits fluorescence polarisation by 50%; read-out: IC50 (nM) Bcl-2 FP. The procedure:
The fluorescence polarisation tests were carried out on microplates (384 wells). […] After incubation for 2 hours, the fluorescence polarisation is measured.
(Fluorescence polarisation rises when a labelled molecule tumbles more slowly, as on binding a larger partner.)

The test system of test [1] is RS4;11 leukaemia tumour line. The experiment in a line: In vitro cytotoxicity (Microculture Tetrazolium Assay, 48 hours). Format: cell-based. Particulars: Homo sapiens, RS4;11 cells, 48 hours exposure, MTT, concentration that inhibits cell viability by 50%, read-out: IC50 (nM) MTT RS4. The procedure: The cytotoxicity studies were carried out on the RS4;11 leukaemia tumour line.
The cells are distributed onto microplates and exposed to the test compounds for 48 hours.

As a reminder, the IC50 is the concentration needed to halve the response being measured.

Structures can show the parent of a compound that is named as a salt.

Sequence of Bcl-2 protein (P10415 whole entry): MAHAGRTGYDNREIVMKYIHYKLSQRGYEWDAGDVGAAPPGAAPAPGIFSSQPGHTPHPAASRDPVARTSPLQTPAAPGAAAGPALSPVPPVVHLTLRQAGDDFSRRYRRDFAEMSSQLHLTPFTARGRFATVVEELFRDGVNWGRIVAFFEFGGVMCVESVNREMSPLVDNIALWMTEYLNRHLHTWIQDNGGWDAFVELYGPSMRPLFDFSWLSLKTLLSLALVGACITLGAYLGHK

Turning to `Cn1ccc2cc(N(C(=O)c3cc(-c4cc5c(cc4C(=O)N4Cc6ccccc6C[C@H]4CN4CCOCC4)OCO5)n4c3COCC4)c3ccc(O)cc3)ccc21` [Example 80, N-(4-Hydroxyphenyl)-N-(1-methyl-1H-indol-5-yl)-6-{6-[((3S)-3-(4-morpholinylmethyl)-3,4-dihydro-2(1H)-isoquinolinyl)carbonyl]-1,3-benzodioxol-5-yl}-3,4-dihydro-1H-pyrrolo[2,1-c][1,4]oxazine-8-carboxamide], the half-maximal inhibitory concentration (IC50) is 18 nM on Bcl-2 protein and 18.8 nM in test [1].
The like results for `CN1CCc2cc(N(C(=O)c3cc(-c4cc5c(cc4C(=O)N4Cc6ccccc6C[C@H]4CN4CCOCC4)OCO5)n4c3COCC4)c3ccc(O)cc3)ccc21` [Example 81, N-(4-Hydroxyphenyl)-N-(1-methyl-2,3-dihydro-1H-indol-5-yl)-6-{6-[((3S)-3-(4-morpholinylmethyl)-3,4-dihydro-2(1H)-isoquinolinyl)carbonyl]-1,3-benzodioxol-5-yl}-3,4-dihydro-1H-pyrrolo[2,1-c][1,4]oxazine-8-carboxamide hydrochloride] were, in that order, 28 nM and 39.3 nM.
For the compound `Cc1ccc(N(C(=O)c2cc(-c3cc(Cl)ccc3C(=O)N3Cc4ccccc4C[C@H]3CN3CCOCC3)n3c2COCC3)c2ccc(O)cc2)cc1F` [Example 82, 6-{5-Chloro-2-[((3S)-3-(4-morpholinylmethyl)-3,4-dihydro-2(1H)-isoquinolinyl)carbonyl]phenyl}-N-(3-fluoro-4-methylphenyl)-N-(4-hydroxyphenyl)-3,4-dihydro-1H-pyrrolo[2,1-c][1,4]oxazine-8-carboxamide hydrochloride], the half-inhibitory concentration (IC50) on Bcl-2 protein came out at 33 nM; in test [1], 21.9 nM.
Regarding `O=C(c1cc(-c2cc(Cl)ccc2C(=O)N2Cc3ccccc3C[C@H]2CN2CCOCC2)n2c1CCCC2)N(c1ccc(O)cc1)c1ccsc1` [Example 85, 3-{5-Chloro-2-[((3S)-3-(4-morpholinylmethyl)-3,4-dihydro-2(1H)-isoquinolinyl)carbonyl]phenyl}-N-(4-hydroxyphenyl)-N-(3-thienyl)-5,6,7,8-tetrahydro-1-indolizine carboxamide hydrochloride], the IC50 on Bcl-2 protein was found to be 41 nM; in test [1], 246 nM.
Consider `Cn1ccc2cc(N(C(=O)c3cc(-c4cc(Cl)ccc4C(=O)N4Cc5ccccc5C[C@H]4CN4CCOCC4)n4c3COCC4)c3ccc(O)cc3)ccc21` [Example 86, 6-{5-Chloro-2-[((3S)-3-(4-morpholinylmethyl)-3,4-dihydro-2(1H)-isoquinolinyl)carbonyl]phenyl}-N-(4-hydroxyphenyl)-N-(1-methyl-1H-indol-5-yl)-3,4-dihydro-1H-pyrrolo[2,1-c][1,4]oxazine-8-carboxamide hydrochloride], for which the half-maximal inhibitory concentration (IC50) on Bcl-2 protein amounted to 22 nM; in test [1], 29.5 nM.
In the same order, the values of `Cc1ccc(N(C(=O)c2cc(-c3cc(F)ccc3C(=O)N3Cc4ccccc4C[C@H]3CN3CCOCC3)n3c2CCCC3)c2ccc(O)cc2)cc1F` [Example 91, N-(3-Fluoro-4-methylphenyl)-3-(5-fluoro-2-{[(3S)-3-(morpholin-4-ylmethyl)-3,4-dihydroisoquinolin-2(1H)-yl]carbonyl}phenyl)-N-(4-hydroxyphenyl)-5,6,7,8-tetrahydroindolizine-1-carboxamide hydrochloride] are 8 nM and 65.5 nM.
The like results for `Cc1ccc(N(C(=O)c2cc(-c3cc4c(cc3C(=O)N3Cc5ccccc5C[C@H]3CN3CCOCC3)OCO4)n3c2COCC3)c2ccc(O)cc2)cc1F` [Example 92, N-(3-Fluoro-4-methylphenyl)-N-(4-hydroxyphenyl)-6-(6-{[(3S)-3-(morpholin-4-ylmethyl)-3,4-dihydroisoquinolin-2(1H)-yl]carbonyl}-1,3-benzodioxol-5-yl)-3,4-dihydro-1H-pyrrolo[2,1-c][1,4]oxazine-8-carboxamide hydrochloride] were, in that order, 5 nM and 40.2 nM.
In the same order, the values of `Cn1ncc2cc(N(C(=O)c3cc(-c4cc5c(cc4C(=O)N4Cc6ccccc6C[C@H]4CN4CCOCC4)OCO5)n4c3CCCC4)c3ccc(O)cc3)ccc21` [Example 94, N-(4-Hydroxyphenyl)-N-(1-methyl-1H-indazol-5-yl)-3-(6-{[(3S)-3-(morpholin-4-ylmethyl)-3,4-dihydroisoquinolin-2(1H)-yl]carbonyl}-1,3-benzodioxol-5-yl)-5,6,7,8-tetrahydroindolizine-1-carboxamide hydrochloride] are 3 nM and 8.16 nM.
Turning to `Cc1ccc(C(=O)N2Cc3ccccc3C[C@H]2CN2CCOCC2)c(-c2cc(C(=O)N(c3ccc(O)cc3)c3ccc4c(ccn4C)c3)c3n2CCCC3)c1` [Example 95, N-(4-Hydroxyphenyl)-N-(1-methyl-1H-indol-5-yl)-3-(5-methyl-2-{[(3S)-3-(morpholin-4-ylmethyl)-3,4-dihydroisoquinolin-2(1H)-yl]carbonyl}phenyl)-5,6,7,8-tetrahydroindolizine-1-carboxamide hydrochloride], the figures for the 50% inhibitory concentration (IC50) (on Bcl-2 protein; in test [1]) were 6 nM and 13.5 nM, respectively.
The like results for `Cn1ccc2cc(N(C(=O)c3cc(-c4cc5c(cc4C(=O)N4Cc6ccccc6C[C@H]4CN4CCOCC4)OCO5)n4c3CCC4)c3ccc(O)cc3)ccc21` [Example 96, N-(4-Hydroxyphenyl)-N-(1-methyl-1H-indol-5-yl)-5-(6-{[(3S)-3-(morpholin-4-ylmethyl)-3,4-dihydroisoquinolin-2(1H)-yl]carbonyl}-1,3-benzodioxol-5-yl)-2,3-dihydro-1H-pyrrolizine-7-carboxamide hydrochloride] were, in that order, 11 nM and 58.8 nM.
On to `Cc1ccc(N(C(=O)c2cc(-c3cc(Cl)ccc3C(=O)N3Cc4ccccc4C[C@H]3CN3CCOCC3)n3c2CCCC3)c2ccc(O)cc2)cc1Cl` [Example 97, N-(3-Chloro-4-methylphenyl)-3-(5-chloro-2-{[(3S)-3-(morpholin-4-ylmethyl)-3,4-dihydroisoquinolin-2(1H)-yl]carbonyl}phenyl)-N-(4-hydroxyphenyl)-5,6,7,8-tetrahydroindolizine-1-carboxamide hydrochloride], for which the half-inhibitory concentration (IC50) amounted to 20 nM at Bcl-2 protein and 45.4 nM in test [1].
As for `Cc1ccc(N(C(=O)c2cc(-c3cc(F)ccc3C(=O)N3Cc4ccccc4C[C@H]3CN3CCOCC3)n3c2COCC3)c2ccc(O)cc2)cc1F` [Example 98, N-(3-Fluoro-4-methylphenyl)-6-(5-fluoro-2-{[(3S)-3-(morpholin-4-ylmethyl)-3,4-dihydroisoquinolin-2(1H)-yl]carbonyl}phenyl)-N-(4-hydroxyphenyl)-3,4-dihydro-1H-pyrrolo[2,1-c][1,4]oxazine-8-carboxamide hydrochloride], the 50% inhibitory concentration (IC50) was 12 nM at Bcl-2 protein and 73.5 nM in test [1].
The like results for `O=C(c1cc(-c2cc(F)ccc2C(=O)N2Cc3ccccc3C[C@H]2CN2CCOCC2)n2c1COCC2)N(c1ccc(O)cc1)c1ccc(F)cc1` [Example 99, 6-(5-Fluoro-2-{[(3S)-3-(morpholin-4-ylmethyl)-3,4-dihydroisoquinolin-2(1H)-yl]carbonyl}phenyl)-N-(4-fluorophenyl)-N-(4-hydroxyphenyl)-3,4-dihydro-1H-pyrrolo[2,1-c][1,4]oxazine-8-carboxamide hydrochloride] were, in that order, 25 nM and 213 nM.
For `O=C(c1cc(-c2cc(F)ccc2C(=O)N2Cc3ccccc3C[C@H]2CN2CCOCC2)n2c1CC(O)CC2)N(c1ccccc1)c1ccc(O)cc1` (stereo partly drawn) [Example 100, 3-(5-Fluoro-2-{[(3S)-3-(morpholin-4-ylmethyl)-3,4-dihydroisoquinolin-2(1H)-yl]carbonyl}phenyl)-7-hydroxy-N-(4-hydroxyphenyl)-N-phenyl-5,6,7,8-tetrahydroindolizine-1-carboxamide hydrochloride], the figures for the concentration for half-maximal inhibition (IC50) (at Bcl-2 protein; in test [1]) were 22 nM and 856 nM, respectively.
`Cn1ncc2cc(N(C(=O)c3cc(-c4cc(Cl)ccc4C(=O)N4Cc5ccccc5C[C@H]4CN4CCOCC4)n4c3COCC4)c3ccc(O)cc3)ccc21` [Example 101, 6-(5-Chloro-2-{[(3S)-3-(morpholin-4-ylmethyl)-3,4-dihydroisoquinolin-2(1H)-yl]carbonyl}phenyl)-N-(4-hydroxyphenyl)-N-(1-methyl-1H-indazol-5-yl)-3,4-dihydro-1H-pyrrolo[2,1-c][1,4]oxazine-8-carboxamide hydrochloride]: the IC50 on Bcl-2 protein is 5 nM; in test [1] it was 22.1 nM.
The like results for `Cn1ccc2cc(N(C(=O)c3cc(-c4cc(Cl)ccc4C(=O)N4Cc5ccccc5C[C@H]4CN4CCOCC4)n4c3CCCC4)c3ccc(O)cc3)cnc21` [Example 103, 3-(5-Chloro-2-{[(3S)-3-(morpholin-4-ylmethyl)-3,4-dihydroisoquinolin-2(1H)-yl]carbonyl}phenyl)-N-(4-hydroxyphenyl)-N-(1-methyl-1H-pyrrolo[2,3-b]-pyridin-5-yl)-5,6,7,8-tetrahydroindolizine-1-carboxamide] were, in that order, 6 nM and 16.8 nM.
The like results for `COc1ccc(C(=O)N2Cc3ccccc3C[C@H]2CN2CCOCC2)c(-c2cc(C(=O)N(c3ccc(O)cc3)c3ccc4c(cnn4C)c3)c3n2CCCC3)c1` [Example 104, N-(4-Hydroxyphenyl)-3-(5-methoxy-2-{[(3S)-3-(morpholin-4-ylmethyl)-3,4-dihydroisoquinolin-2(1H)-yl]carbonyl}phenyl)-N-(1-methyl-1H-indazol-5-yl)-5,6,7,8-tetrahydroindolizine-1-carboxamide hydrochloride] were, in that order, 7 nM and 21.6 nM.
The like results for `COCCN1CCN(C[C@@H]2Cc3ccccc3CN2C(=O)c2cc3c(cc2-c2cc(C(=O)N(c4ccccc4)c4ccc(O)cc4)c4n2CCCC4)OCO3)CC1` [Example 105, N-(4-Hydroxyphenyl)-3-(6-{[(3S)-3-{[4-(2-methoxyethyl)piperazin-1-yl]methyl}-3,4-dihydroisoquinolin-2(1H)-yl]carbonyl}-1,3-benzodioxol-5-yl)-N-phenyl-5,6,7,8-tetrahydroindolizine-1-carboxamide bis(hydrochloride)] were, in that order, 10 nM and 28.9 nM.
